Measurements taken from publication PMC6979384, “Characterization of the plant homeodomain (PHD) reader family for their histone tail interactions” (Epigenetics & Chromatin, 2020).
Where no end group is shown, it is not given here. [ ]: non-standard residue; d: D form. Arg(Me2a) = CN(C)C(=N)NCCC[C@H](N)C(=O)O; pS = N[C@@H](COP(=O)(O)O)C(=O)O

Columns and labels:
Experiment in all cases: Histone peptide microarray
Assay type in all cases: binding, human
PHRF1 (RP) = conditions: PHRF1 (RP), GST-tagged; arrays performed twice, n of 4
Description: (§1) To more comprehensively define the histone interactions of the 31 PHD readers identified from the domain microarray analyses, we probed each on an alternate microarray platform containing a library of 293 synthetic histone peptides with single or combinatorial PTMs (Additional file 2: Figure S4 and Additional file 3: Table S2).
(§2) The 31 GST-tagged PHD readers identified in the PHD finger domain array were expressed and purified as previously. Histone peptide arrays and peptide pulldown assays were conducted as recently described (specifically, the optimized protocol from Petell et al. for the former).
(§3) Supplementary file 13072_2020_328_MOESM3_ESM.xlsx: Additional file 3: Table S2. […] Excel Tab Peptide List is a compiled list of the entire 293 histone peptide library with amino acid sequence ranges. […] Each number corresponds to the peptide number designated in Peptide List. Excel Tab Average Signals is a compiled set of binding data: chromatin reader at 0.5 μM vs. entire 293 peptide library. Data is presented as the average and standard deviation of 4 replicates. The average signals are colored to indicate signal intensity with green being strong and white being weak/low. […] Key: red= stronger relative binding; blue = weaker relative binding. Excel Tab Array info summary is a table summarizing the domains, sequence coverage, array signal range, and noise for each of the GST-tagged readers assayed on the peptide microarrays.

KDM4C (TTP) = conditions: KDM4C (TTP), GST-tagged; arrays performed twice, n of 4
Description: as §1, §2, §3

CHD5 (PCC) = conditions: CHD5 (PCC), GST-tagged; arrays performed twice, n of 4
Description: as §1, §2, §3

BAZ2B = conditions: BAZ2B, GST-tagged; arrays performed twice, n of 4
Description: as §1, §2, §3

PHF2 = conditions: PHF2, GST-tagged; arrays performed twice, n of 4
Description: as §1, §2, §3

ING3 = conditions: ING3, GST-tagged; arrays performed twice, n of 4
Description: as §1, §2, §3

PHF23 = conditions: PHF23, GST-tagged; arrays performed twice, n of 4
Description: as §1, §2, §3

ING1 = conditions: ING1, GST-tagged; arrays performed twice, n of 4
Description: as §1, §2, §3

PHF21A = conditions: PHF21A, GST-tagged; arrays performed twice, n of 4
Description: as §1, §2, §3

RAG2 = conditions: RAG2, GST-tagged; arrays performed twice, n of 4
Description: as §1, §2, §3

TRIM66 (PB) = conditions: TRIM66 (PB), GST-tagged; arrays performed twice, n of 4
Description: as §1, §2, §3

KDM5B (1) = conditions: KDM5B (1), GST-tagged; arrays performed twice, n of 4
Description: as §1, §2, §3

TAF3 = conditions: TAF3, GST-tagged; arrays performed twice, n of 4
Description: as §1, §2, §3

CHD4 (PPCC) = conditions: CHD4 (PPCC), GST-tagged; arrays performed twice, n of 4
Description: as §1, §2, §3

CHD5 (PPCC) = conditions: CHD5 (PPCC), GST-tagged; arrays performed twice, n of 4
Description: as §1, §2, §3

AIRE (PP) = conditions: AIRE (PP), GST-tagged; arrays performed twice, n of 4
Description: as §1, §2, §3

ING5 = conditions: ING5, GST-tagged; arrays performed twice, n of 4
Description: as §1, §2, §3

ING4 = conditions: ING4, GST-tagged; arrays performed twice, n of 4
Description: as §1, §2, §3

KDM5A (1) = conditions: KDM5A (1), GST-tagged; arrays performed twice, n of 4
Description: as §1, §2, §3

BPTF (PB) = conditions: BPTF (PB), GST-tagged; arrays performed twice, n of 4
Description: as §1, §2, §3

KDM5A (3) = conditions: KDM5A (3), GST-tagged; arrays performed twice, n of 4
Description: as §1, §2, §3

PHF13 = conditions: PHF13, GST-tagged; arrays performed twice, n of 4
Description: as §1, §2, §3

KDM7A = conditions: KDM7A, GST-tagged; arrays performed twice, n of 4
Description: as §1, §2, §3

SP140L = conditions: SP140L, GST-tagged; arrays performed twice, n of 4
Description: as §1, §2, §3

ING2 = conditions: ING2, GST-tagged; arrays performed twice, n of 4
Description: as §1, §2, §3

MORC3 (CW) = conditions: MORC3 (CW), GST-tagged; arrays performed twice, n of 4
Description: as §1, §2, §3

PHF8 = conditions: PHF8, GST-tagged; arrays performed twice, n of 4
Description: as §1, §2, §3

KDM5B (3) = conditions: KDM5B (3), GST-tagged; arrays performed twice, n of 4
Description: as §1, §2, §3

DIDO1 = conditions: DIDO1, GST-tagged; arrays performed twice, n of 4
Description: as §1, §2, §3

DPF2 (PPC2W2) = conditions: DPF2 (PPC2W2), GST-tagged; arrays performed twice, n of 4
Description: as §1, §2, §3

MLL5 = conditions: MLL5, GST-tagged; arrays performed twice, n of 4
Description: as §1, §2, §3

Substance | Array Heatmap value (peptide array binding signal) (PHRF1 (RP)) | Array Heatmap value (peptide array binding signal) (KDM4C (TTP)) | Array Heatmap value (peptide array binding signal) (CHD5 (PCC)) | Array Heatmap value (peptide array binding signal) (BAZ2B) | Array Heatmap value (peptide array binding signal) (PHF2) | Array Heatmap value (peptide array binding signal) (ING3) | Array Heatmap value (peptide array binding signal) (PHF23) | Array Heatmap value (peptide array binding signal) (ING1) | Array Heatmap value (peptide array binding signal) (PHF21A) | Array Heatmap value (peptide array binding signal) (RAG2) | Array Heatmap value (peptide array binding signal) (TRIM66 (PB)) | Array Heatmap value (peptide array binding signal) (KDM5B (1)) | Array Heatmap value (peptide array binding signal) (TAF3) | Array Heatmap value (peptide array binding signal) (CHD4 (PPCC)) | Array Heatmap value (peptide array binding signal) (CHD5 (PPCC)) | Array Heatmap value (peptide array binding signal) (AIRE (PP)) | Array Heatmap value (peptide array binding signal) (ING5) | Array Heatmap value (peptide array binding signal) (ING4) | Array Heatmap value (peptide array binding signal) (KDM5A (1)) | Array Heatmap value (peptide array binding signal) (BPTF (PB)) | other results
H2AS1p + R3me2a + K5ac: H2A 1-17 ([pS]G[Arg(Me2a)]GK(Ac)QGGKARAKAKTR; UniProt P0C0S8 2-18, looked up, fragment) | 0.5154 | 0.5547 | 0.8457 | 0.5108 | 0.5212 | 0.5376 | 0.5991 | 0.5672 | 0.4866 | 0.2825 | 0.6131 | 0.7084 | 0.2891 | 0.5877 | 0.6207 | 0.4865 | 0.4136 | 0.4949 | 0.5224 | 0.3885 | Array Heatmap value (peptide array binding signal) (KDM5A (3)): 0.5245; Array Heatmap value (peptide array binding signal) (PHF13): 0.6406; Array Heatmap value (peptide array binding signal) (KDM7A): 0.4163; Array Heatmap value (peptide array binding signal) (SP140L): 0.3795; Array Heatmap value (peptide array binding signal) (ING2): 0.6108; Array Heatmap value (peptide array binding signal) (MORC3 (CW)): 0.4152; Array Heatmap value (peptide array binding signal) (PHF8): 0.3894; Array Heatmap value (peptide array binding signal) (KDM5B (3)): 0.5099; Array Heatmap value (peptide array binding signal) (DIDO1): 0.7538; Array Heatmap value (peptide array binding signal) (DPF2 (PPC2W2)): 0.758; Array Heatmap value (peptide array binding signal) (MLL5): 0.5765
H2AX (132-142): H2AX 132-142 (GKKATQASQEY; UniProt P16104 133-143, looked up, fragment) | 0.3943 | 0.4463 | 0.733 | 0.4423 | 0.5225 | 0.4477 | 0.5369 | 0.536 | 0.4468 | 0.2674 | 0.5363 | 0.6162 | 0.2878 | 0.5518 | 0.5152 | 0.4547 | 0.3322 | 0.4334 | 0.4587 | 0.3256 | Array Heatmap value (peptide array binding signal) (KDM5A (3)): 0.478; Array Heatmap value (peptide array binding signal) (PHF13): 0.5577; Array Heatmap value (peptide array binding signal) (KDM7A): 0.3262; Array Heatmap value (peptide array binding signal) (SP140L): 0.3692; Array Heatmap value (peptide array binding signal) (ING2): 0.621; Array Heatmap value (peptide array binding signal) (MORC3 (CW)): 0.4162; Array Heatmap value (peptide array binding signal) (PHF8): 0.3348; Array Heatmap value (peptide array binding signal) (KDM5B (3)): 0.4637; Array Heatmap value (peptide array binding signal) (DIDO1): 0.7308; Array Heatmap value (peptide array binding signal) (DPF2 (PPC2W2)): 0.6502; Array Heatmap value (peptide array binding signal) (MLL5): 0.533
H2AX (S139p): H2AX 132-142 (GKKATQA[pS]QEY; UniProt P16104 133-143, looked up, fragment) | 0.411 | 0.5256 | 0.7872 | 0.5073 | 0.4467 | 0.4704 | 0.5395 | 0.495 | 0.4613 | 0.2586 | 0.5363 | 0.697 | 0.2793 | 0.5526 | 0.5731 | 0.5219 | 0.3847 | 0.4783 | 0.5265 | 0.3554 | Array Heatmap value (peptide array binding signal) (KDM5A (3)): 0.4478; Array Heatmap value (peptide array binding signal) (PHF13): 0.6185; Array Heatmap value (peptide array binding signal) (KDM7A): 0.4369; Array Heatmap value (peptide array binding signal) (SP140L): 0.363; Array Heatmap value (peptide array binding signal) (ING2): 0.5973; Array Heatmap value (peptide array binding signal) (MORC3 (CW)): 0.3885; Array Heatmap value (peptide array binding signal) (PHF8): 0.3729; Array Heatmap value (peptide array binding signal) (KDM5B (3)): 0.5358; Array Heatmap value (peptide array binding signal) (DIDO1): 0.6489; Array Heatmap value (peptide array binding signal) (DPF2 (PPC2W2)): 0.653; Array Heatmap value (peptide array binding signal) (MLL5): 0.5137
